# Measurements published in patent US11331269B2, “Methods and compositions targeting lung microbiota and its responding immune pathways for lung cancer treatment” (Massachusetts Institute of Technology, priority 2018, dated 2022).
# B1: recombinant IL-22: recombinant mouse IL-22 (R&D Systems) (protein, UniProt Q9JJY9 34-179, looked up)
# Interleukin-22: LPVNTRCKLEVSNFQQPYIVNRTFMLAKEASLADNNTDVRLIGEKLFRGVSAKDQCYLMKQVLNFTLEDVLLPQSDRFQPYMQEVVPFLTKLSNQLSSCHISGDDQNIQKNVRRLKETVKKLGESGEIKAIGELDLLFMSLRNACV
# B2: recombinant amphiregulin: recombinant human amphiregulin (Sigma-Aldrich), EGFR ligand (protein, UniProt P15514 101-187, looked up)
# Amphiregulin: SVRVEQVVKPPQNKTESENTSDKPKRKKKGGKNGKNRRNRKKKNPCNAEFQNFCIHGECKYIEHLEAVTCKCQQEYFGERCGEKSMK
# What was measured:
# [1] = system: lung adenocarcinoma in KP mice; assay: Tumor development (tumor burden/grade by histology) in autochthonous KP GEM model of lung adenocarcinoma; settings: SPF KP mice, metronidazole alone (1 g/L) in drinking water starting 5 weeks post tumor initiation (FIG. 2E)
# Excerpt: The genetically-engineered mouse (GEM) model of human LUAD has previously been described (DuPage, et al.). In this model, the mice harbor conditional alleles of Kras^LSL-G12D and p53^flox/flox (KP mice). Upon intratracheal infection with adenoviral vectors expressing the Cre-recombinase under the control of the Sftpc promoter, oncogenic KrasG12D is activated and the tumor suppressor p53 is deleted in lung epithelial cells to induce lung adenoma and adenocarcinoma.
# Germ-free KP mice were housed in gnotobiotic isolators, which were sampled every 2 weeks and confirmed negative for bacterial and fungal contaminants by culture, fecal Gram stain, and PCR using universal 16S rRNA primers. […]
# Tumor-bearing lung lobes and a portion of the spleen were fixed in 4% paraformaldehyde overnight and embedded in paraffin. […] Digitally scanned images of H&E or Ki67-stained slides were created with the Aperio ScanScope AT2 at 20× magnification and analyzed with the Aperio's WebScope software. For tumor burden quantification, tumor regions were outlined and the percentage of tumor area relative to total lung area was calculated for each mouse. For Ki67 index, tumor cells were classified based on the intensity of the nuclear Ki67 staining from 0 to 3+ by using a built-in Nuclear algorithm in the Webscope, and the percentage of nuclei with intense nuclear staining (3+) in total nuclei was calculated. […]
# [2] = system: IL-17A; assay: IL-17A ELISA in BALF or serum of KP mice; format: in vivo, mouse; settings: antibiotics in drinking water
# Method: IL-17 levels in serum or bronchoalveolar lavage fluid were measured using a mouse IL-17A ELISA kit (eBioscience) according to the manufacturer's instructions.
# IL-17 levels were measured using a mouse IL-17A ELISA kit (eBioscience) according to the manufacturer's instructions.
# IL-17A levels were measured using a mouse IL-17A ELISA kit (eBioscience) according to the manufacturer's instructions.
# [3] = system: IL-17 producing γδ T cells; assay: Flow cytometry of IL-17 producing γδ T cells in tumor-bearing lung; format: in vivo, mouse; settings: KP mice, antibiotics in drinking water
# Method: Mice were injected retro-orbitally with a PE-CF594 conjugated anti-CD45 antibody (30-F11, BD Bioscience) 2 minutes prior to euthanasia to label the immune cells in the circulation. Lungs were collected, cut into small pieces, and digested with 125 U/mL collagenase IV (Worthington Biochemical) and 40 U/mL DNase I (Roche) for 30 minutes at 37° C. Dissociated lung tissue was then filtered with a 100 μm cell strainer. Spleen and lymph node samples were ground and passed through a 100 μm cell strainer. After blocking FcgRIII/II with an anti-CD16/CD32 mAb (eBioscience), single cell suspensions were stained with the following antibodies: CD45.2 (104), CD45.1 (A20), Ly6G (1A8), CD11b (M1/70), TCRβ (H57-597), TCRγδ (GL3 or UC7-13D5), CD3 (17A2), CD4 (RM4-5), CD8 (53-6.7), Vγ1 (Vg1.1, 2.11), Vγ4 (Vγ2, UC3-10A6), IFN-γ (XMG1.2), IL-17A (TC11-18H10.1), TNF-α (MP6-XT22), IL-17F (ebio18F10), CD44 (IM7), CD27 (LG.3A10), CD69 (H1.2F3), PD-1 (29F. 1A12), PD-L1 (10F.9G2), T-bet (eBio4B10), RORγt (B2D), PLZF (Mags.21F7) and Ki67 (B56) purchased from eBioscience, BD or Biolegend. […] Flow cytometry was performed on the LSR II or LSRFortessa (BD), and data were analyzed by the FlowJo software (Treestar). […]
# Flow cytometry and FACS was performed as described above in Example 3. […] Flow cytometry was performed on the LSR II or LSRFortessa (BD), and data were analyzed by the FlowJo software (Treestar). […]
# [4] = system: bacterial abundance in the gut; assay: Fecal bacterial load by 16S rDNA-based qPCR; format: in vivo, mouse; settings: SPF KP mice, metronidazole alone in drinking water
# Method: Fecal pellets were collected from the colon at the time of tissue harvest. BALF and fecal samples were processed for DNA isolation using a previously established protocol (Palm, et al., Cell. 158(5):1000-1010 (2014); Turnbaugh, et al., Nature. 457(7228):480-4 (2009)). […] E. coli genomic DNA was used as a standard, with samples at 1, 0.1, 0.01, and 0.001 ng per reaction used to create a standard curve.
# [5] = system: KP tumor-derived cell lines; assay: In vitro cell proliferation of tumor cell lines derived from primary lung tumors of KP mice; format: cell-based, mouse; settings: live cells 72 hours post treatment
# Method: Tumor cell lines were derived from primary lung tumors of KP mice, and maintained in DMEM medium (Gibco) supplemented with 10% FBS (Sigma). Cells were serum-starved for 24 hours (1% FBS) before treated with recombinant human amphiregulin (Sigma-Aldrich) or recombinant mouse IL-22 (R&D Systems) at the indicated dose, or left untreated as controls. The number of live cells was determined 72 hours post treatment by counting the Trypan Blue (Gibco) negative cells or through the CellTiter-Glo Luminescent Cell Viability Assay (Promega) according to the manufacturer's instructions.
molecule,measurement,setting,value
Cc1ncc([N+](=O)[O-])n1CCO [metronidazole],tumor growth in the lung (tumor burden),[1],effectively suppressed tumor growth in the lung
same,IL-17A levels in the BALF or serum,[2],lower IL-17A levels
same,abundance of IL-17 producing γδ T cells in the tumor-bearing lung,[3],dramatically decreased
same,overall bacterial abundance in the gut,[4],without substantially reducing the overall bacterial abundance in the gut
B1,tumor cell proliferation in vitro,"[5]; recombinant mouse IL-22, serum-starved KP tumor cell lines",stimulated tumor cell proliferation in vitro
B2,proliferation of KP tumor-derived cell lines,"[5]; recombinant human amphiregulin, serum-starved cells",promoted proliferation of KP tumor-derived cell lines in a dose-dependent fashion
